Test results: USRE29469E, “Hydroxylated 15-deoxy derivatives of 9-hydroxyl-13-trans-prostenoic acid” (American Cyanamid Company, priority 1976, dated 1977)

Assays:
[1] = system: gastric acid secretion; test: Inhibition of gastric acid secretion (modified Shay rat procedure); assay type: in vivo, rats (male, CFE strain); conditions: 3 hours; for inhibition in vivo at 50 mg/kg: intraduodenal dose 50 mg./kg of body weight
Protocol: The novel compounds of the present invention are also effective inhibitors of gastric acid secretion and of ulcer development in experimental animals, and thus are potentially valuable as agents for the control of gastric acid secretion and of gastric erosion and as anti-ulcer agents. Gastric acid secretion inhibitory action is usually measure by the "Shay rat" procedure^(1,2) with some modifications as follows.
The rats (male, CFE strain) were starved for 48 hours (water was given ad libitum) to permit evacuation of stomach contents. On the morning of the experiment, under ether anesthesia, the abdominal region was shaved and a midline incision (1-11/2 inches) was made with a scapel. With the help of a closed curved hemostate the duodenum was picked up. Upon getting the duodenum into view, fingers were used to pull the stomach through the opening, the stomach was then gently manipulated with fingers to rid the stomach of air and residual matter which were pushed through the pylorus. Two-5 inch sutures were drawn under the pyloric-duodenal puncture. A ligature, at the juncture, was formed with one of the threads. The second ligature was also formed but not tightened.
The test compound and the vehicle, usually 1 ml./100 g. body weight, were injected into the duodenum as close as possible to the first ligature. After injection the second ligature was tightened below the injection site to minimize leakage. The stomach was placed back through the opening into the abdominal cavity, the area of incision was washed with saline and the incision was closed with autoclips. (Occasionally, instead of an intraduodenal injection, animals were dosed by the oral or subcutaneous route. In the latter case, dosing was done 30 to 60 minutes before the operation.)
The abdominal cavity was exposed by cutting with scissors and the esophagus close to the stomach was clamped off with a hemostat, the stomach was removed by cutting above the hemostat (the .[.espphagus.]. .Iadd.esophagus .Iaddend.was cut) and between the two sutures. Extraneous .[.tisue.]. .Iadd.tissue .Iaddend.was removed, the stomach washed with saline and blotted on gauze. A slit was carefully made in the stomach which was held over a funnel and the contents were collected in a centrifuge tube. The stomach was further cut along the outside edge and turned inside out. Two ml. H2 O were used to wash the stomach contents into the respective centrifuged tube. The combined stomach contents and wash were then centrifuged out for 10 min. in the International Size 2 Centrifuge (setting at 30). The supernatant was collected, volume measured and recorded, 2 drops of a phenylphthalein indicator (1% in 95% ethanol) were added and the solution was titrated with 0.02N NaOH (or with 0.04N NaOH when large volumes of stomach contents were encountered to pH 8.4 (because of usual coloring of the stomach contents, phenolphthalein was only used to permit visual indication that the end point was near) and the amount of acid present was calculated.
Compounds inducing inhibition of gastric acid secretion of 20% or more were considered active. In a representative operation, and merely by way of illustration, the results obtained with this assay with typical compounds of the present invention are given in Table II below.

[2] = system: bronchospasms elicited by 5-hydroxytryptamine; test: Bronchodilator activity (Konzett assay) against 5-hydroxytryptamine; assay type: in vivo, guinea pigs; conditions: guinea pig, three cumulative intravenous doses; for ED50: Cavia porcellus, read-out: ED50, spasmogenic agent 5-hydroxytryptamine
Protocol: (§1) Bronchodilator activity was determined in guinea pigs against bronchospasms elicited by intravenous injections of 5-hydroxytryptamine, histamine or acetylcholine by the Konzett procedure, [See J. Lulling, P. Lievens, F. El Sayed and J. Prignot, Arzneimittel-Forschung, 18, 995 (1968).]
(§2) In the Table which follows bronchodilator activity for representative compounds of this invention against one or more of the three spasmogenic agents is expressed as an ED50 determined from the results obtained with three logarithemic cumulative intravenous dose.

[3] = system: bronchospasms elicited by histamine; test: Bronchodilator activity (Konzett assay) against histamine; assay type: in vivo, guinea pigs; conditions: guinea pig, three cumulative intravenous doses; for ED50: Cavia porcellus, read-out: ED50, spasmogenic agent histamine
Protocol: as §1, §2

[4] = system: bronchospasms elicited by acetylcholine; test: Bronchodilator activity (Konzett assay) against acetylcholine; assay type: in vivo, guinea pigs; conditions: Cavia porcellus, guinea pig, three cumulative intravenous doses, read-out: ED50, spasmogenic agent choline
Protocol: as §1, §2

[5] = system: ulcerogenic properties of indomethacin; test: Anti-ulcerogenic effect (protection against the ulcerogenic properties of indomethacin); assay type: in vivo, rats; conditions: indomethacin 20 mg./kg s.c.
Protocol: The compounds of this invention also provide protection against the ulcerogenic properties of indomethacin. This assay was carried out in the following manner.
Rats were starved for 48 hours (water was given ad libitum). Indomethacin (20 mg./kg. of body weight) was administered by the subcutaneous route and one-half the dose of the test compound was administered by gavage at the same time. After 3 hours, the second half of the test compound was administered also by gavage. Five hours after the administration of indomethacin the animals were decapitated and the stomachs removed. The stomachs were washed with distilled water, blotted on gauze, cut along the larger curvature, and the contents rinsed with distilled water. The stomachs were spread out, pinned on a cork and visualized under magnifying glass for ulcers. The criteria for scoring of .[.ulers.]. .Iadd.ulcers .Iaddend. was as previously reported. [Abdel-Galil et al. Brit. J. Pharmac. Chemotherapy 33:1-14 (1968)]. […]
1- Petechial hemorrhage or pin point ulcers
3- Many ulcers, a few large
4- Many ulcers, mainly large
A difference of at least 0.7 unit between the scores for control animals (treated with indomethacin but not test compound) and animals treated with indomethacin and test compound is considered indicative of activity for the test compound. (Control animals treated with neither indomethacin nor test compound give scores of about 0.5-0.8.) The results obtained in this assay with typical compounds of the present invention are set forth in Table I below.

[6] = Rattus norvegicus, read-out: Percent Inhibition
[7] = total oral dose 50 mg./kg, control score 2.3, scale 0 (normal stomach) to 4 (many ulcers, mainly large)
[8] = Rattus norvegicus, intraduodenal dose 100 mg./kg of body weight, read-out: Percent Inhibition

Molecule: O=C(O)CCCCCC[C@@H]1C(=O)CC[C@H]1/C=C/CCCCO (relative stereo) [20-hydroxy-9-oxo-18,19-dinor-13-trans-prostenoic acid]
- inhibition in vivo at 50 mg/kg [1, 6]: 21%
- ED50 [2]: 2.85 mg/kg
- ED50 [3]: 2.22 mg/kg
- ED50 [4]: 10 mg/kg

Molecule: O=C(O)CCCCCC[C@H]1C(=O)C[C@@H](O)[C@@H]1/C=C/CCCCCCO (relative stereo) [11α ,20-dihydroxy-9-oxo-13-trans-prostenoic acid]
- ED50 [2]: 0.377 mg/kg
- ED50 [3]: 0.077 mg/kg
- ED50 [4]: 2.34 mg/kg

Molecule: CCCC(O)CC/C=C/[C@H]1[C@H](O)CC(=O)[C@@H]1CCCCCCC(=O)O (relative stereo) [9-oxo-11α,17-dihydroxy-13-trans-prostenoic acid]
- Score treated ([5]; total oral dose 25 mg./kg, control score 2.7, scale 0-4): 1.3
- inhibition in vivo at 50 mg/kg [1, 6]: 73%
- ED50 [2]: 0.235 mg/kg
- ED50 [3]: 0.45 mg/kg
- ED50 [4]: 0.518 mg/kg

Molecule: CCCCC(O)C/C=C/[C@H]1CCC(=O)[C@@H]1CCCCCCC(=O)O (relative stereo) [16-hydroxy-9-oxo-13-trans-prostenoic acid]
- Score treated [5, 7]: 1.2
- inhibition in vivo at 50 mg/kg [1, 6]: 67%
- ED50 [3]: 0.0346 mg/kg
- ED50 [4]: 0.455 mg/kg

Molecule: 9-oxo-18-hydroxy-19-hydroxy-13-trans-prostenoic acid
- Percent Inhibition ([1]; intraduodenal dose 100 mg./kg of body weight): 28%
- ED50, spasmogenic agent 5-hydroxytryptamine [2]: 1.19 mg/kg
- ED50, spasmogenic agent histamine [3]: 1.04 mg/kg

Molecule: CCCCC(O)C/C=C/[C@H]1[C@H](O)CC(=O)[C@@H]1CCCCCCC(=O)O (relative stereo) [9-oxo-11α ,16-dihydroxy-13-trans-prostenoic acid]
- Score treated ([5]; total oral dose 0.18 mg./kg, control score 3.0, scale 0-4): 2.5
- Score treated ([5]; total oral dose 0.39 mg./kg, control score 3.0, scale 0-4): 2.0
- Score treated ([5]; total oral dose 0.78 mg./kg, control score 3.0, scale 0-4): 1.5
- Score treated ([5]; total oral dose 1.56 mg./kg, control score 2.5, scale 0-4): 1.0
- Score treated ([5]; total oral dose 4.4 mg./kg, control score 3.0, scale 0-4): 1.0
- Score treated ([5]; total oral dose 12.5 mg./kg, control score 3.0, scale 0-4): 1.0
- inhibition in vivo at 0.4 mg/kg ([1]; Rattus norvegicus, dose 0.4* mg./kg of body weight (asterisk not explained), read-out: Percent Inhibition): 27%
- inhibition in vivo at 0.8 mg/kg ([1]; Rattus norvegicus, dose 0.8* mg./kg of body weight (asterisk not explained), read-out: Percent Inhibition): 53%
- inhibition in vivo at 1.6 mg/kg ([1]; Rattus norvegicus, dose 1.6* mg./kg of body weight (asterisk not explained), read-out: Percent Inhibition): 79%
- ED50 [2]: 0.000607 mg/kg
- ED50 [3]: 0.166 mg/kg
- ED50 [4]: 0.00042 mg/kg

Molecule: O=C(O)CCCCCC[C@H]1C(=O)C=C[C@@H]1/C=C/CCCCCCO (relative stereo) [20-hydroxy-9-oxo-10,13-trans-prostadienoic acid]
- inhibition in vivo at 50 mg/kg [1, 6]: 91%
- ED50 [2]: 1.32 mg/kg
- ED50 [3]: 2.28 mg/kg

Molecule: O=C(O)CCCCCC[C@H]1C(=O)CC[C@@H]1/C=C/CCCCCCO (relative stereo) [20-hydroxy-9-oxo-13-trans-prostenoic acid]
- inhibition in vivo at 100 mg/kg [1, 8]: 56%
- ED50 [2]: 0.117 mg/kg
- ED50 [3]: 0.03 mg/kg
- ED50 [4]: 2.16 mg/kg

Molecule: CCOC(=O)CCCCCC[C@@H]1C(=O)CC[C@H]1/C=C/CCCCO (relative stereo) [ethyl 20-hydroxy-9-oxo-18,19-dinor-13trans-prostenoate]
- inhibition in vivo at 100 mg/kg [1, 8]: 49%

Molecule: CCCCC(O)CCC[C@H]1CCC(=O)[C@@H]1CCCCCCC(=O)O (stereo partly shown) [9-oxo-16-hydroxy-prostanoic acid, 16-hydroxy-9-oxo-prostanoic acid]
- Score treated [5, 7]: 1.3
- inhibition in vivo at 50 mg/kg [1, 6]: 58%
- ED50 [2]: 0.0927 mg/kg
- ED50 [4]: 1.13 mg/kg
